Experimental data reported in publication PMC4830977 (Scientific Reports, 2016).
Where “and” joins values, the source holds several entries; their conditions need not be identical. Equal entries are not always repeated. Where two headings read alike, the source gives them in different places.

What was measured:
α2δ-1-MIDAS^AAA = assay: [3H]-gabapentin saturation binding to membranes of tsA-201 cells expressing α2δ-1 MIDAS mutant
Experimental: Cell membrane and DRM fractions were prepared essentially as described previously. Cultured tsA-201 cells were washed twice in ice-cold PBS and then left in ice-cold PBS containing Complete protease inhibitor cocktail (Roche, concentration according to manufacturer’s instructions) for 5 min. Cells were gently washed off the bottom of the flask and pelleted at 2000 × g for 10 min. Pellets were kept on ice if used immediately, or stored at −20 °C until required. For brain membranes, adult male Sprague Dawley rats (200–250 g) were euthanised by CO2 inhalation and then decapitated. The whole brain minus cerebellum was homogenised on ice in a buffer containing the following (in mM): 20 HEPES, pH 7.4, 2 EDTA, EDTA-free protease inhibitor cocktail (Roche, concentration according to manufacturer’s instructions).
For membrane preparation, pellets obtained from cell harvesting, resuspended in ice-cold 10 mM Hepes plus protease inhibitors (pH 7.4), or brain homogenate, were mechanically lysed by 10–15 passages through a 23 gauge needle. Cell debris and non-lysed cells were pelleted for 15 min at 1,000 × g. The supernatant obtained was transferred to a 30 ml thick-walled ultracentrifuge tube (Beckman-Coulter). Membranes were pelleted in an ultracentrifuge (Beckman-Coulter) for 90 min at 60,000 × g, and resuspended as required. Aliquots were used to determine the protein concentration.

TSP4-EGF = assay: 3H-gabapentin binding to TSP4-EGF alone (control); conditions: control experiment, data not shown
TSP4 = assay: 3H-gabapentin binding to membranes of tsA-201 cells expressing only TSP4 (control); conditions: 1 experiment in triplicate
Experimental: Each experiment was carried out in triplicate, and the mean value used for subsequent analysis.
Harvesting of the samples was performed by filtration through GF/B filter papers (Whatman, GE Healthcare) pre-soaked in 0.3% polyethyleneimine solution, in order to reduce non-specific binding to the filter paper. The samples were transferred to the filters by washing the tubes three times with Tris-HCl (100 mM, pH 7.4, Sigma 7–9) using a Brandel Harvester (Brandel). The GF/B filter papers were then cut out and transferred to vials containing 5 ml of scintillant (Liquid scintillant cocktail, Beckman Coulter). Samples were equilibrated for 18 h and then the activity was counted in triplicate in a scintillation counter (Beckman Coulter) for 10 min per sample.

[1] = tested on: synaptogenic domain of TSP2 and α2δ-1; conditions: co-expressed in HEK-293 cells; cited from earlier work
[2] = α2δ-1-MIDAS^AAA + TSP4 with EDTA, n = 3 (Fig. 1F)
[3] = α2δ-1-MIDAS^AAA + TSP4 with Mg2+, n = 3 (Fig. 1F)
[4] = α2δ-1-MIDAS^AAA with EDTA, n = 3 (Fig. 1F)

Structure (SMILES)	nH (α2δ-1-MIDAS^AAA)	mean Bmax (α2δ-1-MIDAS^AAA; [2])	nH (α2δ-1-MIDAS^AAA; [2])	mean Bmax (α2δ-1-MIDAS^AAA; [3])	nH (α2δ-1-MIDAS^AAA; [3])	mean Bmax (α2δ-1-MIDAS^AAA; [4])	nH (α2δ-1-MIDAS^AAA; [4])	Kd (α2δ-1-MIDAS^AAA; α2δ-1-MIDAS^AAA with Mg2+, n = 2 (Fig. 1F), read-out: KD, individual values)	mean Bmax (α2δ-1-MIDAS^AAA; α2δ-1-MIDAS^AAA with Mg2+, n = 2, individual values 0.53, 0.38 (Fig. 1F))	binding affinity compared with WT α2δ-1 (α2δ-1-MIDAS^AAA; α2δ-1 MIDAS^AAA (Fig. 1F))	binding to TSP4-EGF alone (TSP4-EGF)	binding to TSP4 alone (TSP4)	effect on co-immunoprecipitation between synaptogenic domain of TSP2 and α2δ-1 [1]
NCC1(CC(=O)O)CCCCC1 [[^3H]-gabapentin]	1.43	0.24 ± 0.02 pmol/mg protein	1.49 ± 0.10	0.37 ± 0.06 pmol/mg protein	1.45 ± 0.05	0.68 ± 0.12 pmol/mg protein	1.33 ± 0.07	0.117 µM and 0.19 µM	0.46 pmol/mg protein	affinity similar to WT α2δ-1	no ^3H-gabapentin binding	no direct binding	–
NCC1(CC(=O)O)CCCCC1 [gabapentin]	–	–	–	–	–	–	–	–	–	–	–	–	inhibit co-immunoprecipitation
